These compounds were tested against human Kv1.5 channel (Homo sapiens, UniProt P22460) (assay: Test A: Rb+ efflux assay). Conditions: CHO cells stably transfected with cDNA for human Kv1.5.
Sequence of human Kv1.5 channel (P22460 whole entry): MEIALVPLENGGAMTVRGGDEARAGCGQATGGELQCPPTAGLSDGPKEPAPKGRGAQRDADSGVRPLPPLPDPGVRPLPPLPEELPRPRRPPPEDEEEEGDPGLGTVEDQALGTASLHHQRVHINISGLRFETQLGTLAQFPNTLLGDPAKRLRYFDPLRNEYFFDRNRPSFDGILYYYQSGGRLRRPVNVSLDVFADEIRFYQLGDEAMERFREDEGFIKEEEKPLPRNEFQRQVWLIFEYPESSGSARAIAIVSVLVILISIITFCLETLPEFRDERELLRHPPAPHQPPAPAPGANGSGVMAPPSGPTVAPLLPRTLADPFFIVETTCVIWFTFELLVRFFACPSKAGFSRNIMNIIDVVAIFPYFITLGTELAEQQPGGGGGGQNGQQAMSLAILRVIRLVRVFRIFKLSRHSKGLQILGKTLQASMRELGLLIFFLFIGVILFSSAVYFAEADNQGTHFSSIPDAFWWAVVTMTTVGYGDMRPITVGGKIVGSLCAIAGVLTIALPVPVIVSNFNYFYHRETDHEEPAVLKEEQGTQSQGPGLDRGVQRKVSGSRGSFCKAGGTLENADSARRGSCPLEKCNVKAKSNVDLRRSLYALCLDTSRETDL
Assay type: cell-based
Method: This assay identifies compounds that block the human Kv1.5 channel potassium channel heterologously expressed in Chinese Hamster Ovary (CHO) cells by means of Rb+ ion efflux using Flame Atomic Absorption Spectroscopy. For experimental studies, CHO cells stably transfected with cDNA for human Kv1.5 were grown as confluent layers in Falcon, 384-well tissue culture-treated black-walled clear-bottomed plates and the plates were incubated overnight at 37° C. in a cell culture incubator.
After incubating overnight the cell plates were washed and a buffer containing Rb+ ions were added to the cell plates. The plates were then incubated for another 3-4 hours in a CO2-incubator (37° C.). Following this incubation period plates were washed, compounds were added and subsequently a buffer containing elevated K+ concentrations were added in order to activate the Kv1.5 channel. Following a short incubation time, aliquots of the supernatants were transferred to supernatant plates for subsequent determination of the Rb+ content using Atomic Absorption Spectrometry (ICR8000 instrument, Aurora Biomed Inc.).
Compound `CC(CN1C(=O)c2ccccc2C1C(=O)NCc1ccc2c(c1)OC(F)(F)O2)c1ccc(Cl)cc1` (centres unmarked) [2-[2-(4-chlorophenyl)propyl]-N-[(2,2-difluoro-1,3-benzodioxol-5-yl)methyl]-3-oxoisoindoline-1-carboxamide] has an IC50 of 580 nM.
Work on `CC(C)(C)NC(=O)C1c2ccccc2C(=O)N1Cc1ccccc1-c1ccc(F)c(F)c1` (centres unmarked) [N-(tert-butyl)-2-[(3′,4′-difluorobiphenyl-2-yl)methyl]-3-oxoisoindoline-1-carboxamide] yielded an IC50 of 2200 nM.
`CCN(Cc1ccccc1)C(=O)C1c2ccccc2C(=O)N1CCc1ccc(Cl)cc1` (centres unmarked) [N-benzyl-2-[2-(4-chlorophenyl)ethyl]-N-ethyl-3-oxoisoindoline-1-carboxamide] was tested, and the IC50 was 930 nM.
`CC(c1ccccc1)N1C(=O)c2ccccc2C1C(=O)NCc1cccc(OC(F)F)c1` (centres unmarked) [N-[3-(difluoromethoxy)benzyl]-3-oxo-2-(1-phenylethyl)isoindoline-1-carboxamide] was tested, and the IC50 was 2400 nM.
`C[C@@H](c1ccccc1)N1C(=O)c2ccc(Cl)cc2C1C(=O)NCc1ccccc1` (stereo partly drawn) [N-benzyl-6-chloro-3-oxo-2-[(1S)-1-phenylethyl]isoindoline-1-carboxamide] was tested, and the IC50 was 2200 nM.
`CC(C)(C)NC(=O)C1c2cc(C#N)ccc2C(=O)N1Cc1ccccc1-c1ccccc1` (centres unmarked) [2-(biphenyl-2-ylmethyl)-N-(tert-butyl)-6-cyano-3-oxoisoindoline-1-carboxamide] was tested, and the IC50 was 2400 nM.
For `CCCCNC(=O)C1c2cc(F)ccc2C(=O)N1CC(C)c1ccc(Cl)cc1` (single isomer, unassigned) [(1R or 1S)-N-butyl-2-[(2R or 2S)-2-(4-chlorophenyl)propyl]-6-fluoro-3-oxoisoindoline-1-carboxamide], the IC50 was 500 nM.
`CC(C)(C)NC(=O)C1c2cc(Cl)ccc2C(=O)N1Cc1ccccc1C(F)(F)F` (centres unmarked) [N-(tert-butyl)-6-chloro-3-oxo-2-[2-(trifluoromethyl)benzyl]isoindoline-1-carboxamide] showed an IC50 of 1100 nM.
In the case of `CC(C)(C)CN1C(=O)c2ccccc2C1C(=O)NCc1cccc(Cl)c1` (centres unmarked) [N-(3-chlorobenzyl)-2-(2,2-dimethylpropyl)-3-oxoisoindoline-1-carboxamide], the IC50 is reported as 2900 nM.
For `CNC(=O)C1c2cc(Br)ccc2C(=O)N1Cc1ccccc1C1CCCC1` (centres unmarked) [6-bromo-2-(2-cyclopentylbenzyl)-N-methyl-3-oxoisoindoline-1-carboxamide], the IC50 was 2700 nM.
`CC(CN1C(=O)c2ccccc2C1C(=O)NCc1ccc(C(F)(F)F)nc1)c1ccc(Cl)cc1` (centres unmarked) [2-[2-(4-chlorophenyl)propyl]-3-oxo-N-{[6-(trifluoromethyl)pyridin-3-yl]methyl}isoindoline-1-carboxamide] gave an IC50 of 780 nM.
`O=C(NCCCC(F)(F)F)C1c2cc(Cl)ccc2C(=O)N1Cc1ccccc1C(F)(F)F` (centres unmarked) [6-chloro-3-oxo-N-(4,4,4-trifluorobutyl)-2-[2-(trifluoromethyl)benzyl]isoindoline-1-carboxamide] gave an IC50 of 2500 nM.
In the case of `CC(CN1C(=O)c2ccccc2C1C(=O)NCCc1c[nH]c2ccccc12)c1ccc(Cl)cc1` (centres unmarked) [2-[2-(4-chlorophenyl)propyl]-N-[2-(1H-indol-3-yl)ethyl]-3-oxoisoindoline-1-carboxamide], the IC50 is reported as 620 nM.
`CC(CN1C(=O)c2ccccc2C1C(=O)NCc1ccccc1)c1ccc(Cl)cc1` (centres unmarked) [N-benzyl-2-[2-(4-chlorophenyl)propyl]-3-oxoisoindoline-1-carboxamide] was tested, and the IC50 was 510 nM.
`O=C(NCCCC(F)(F)F)C1c2cc(F)ccc2C(=O)N1Cc1ccccc1-c1ccccc1` (centres unmarked) [2-(biphenyl-2-ylmethyl)-6-fluoro-3-oxo-N-(4,4,4-trifluorobutyl)isoindoline-1-carboxamide] gave an IC50 of 2700 nM.
For `O=C(NCc1ccccc1)C1c2ccccc2C(=O)N1Cc1ccccc1Br` (centres unmarked) [N-benzyl-2-(2-bromobenzyl)-3-oxoisoindoline-1-carboxamide], the IC50 was 2500 nM.
Compound `O=C(NCc1ccc(C(F)(F)F)nc1)C1c2cc(Cl)ccc2C(=O)N1Cc1ccccc1-c1ccccc1` (centres unmarked) [2-(biphenyl-2-ylmethyl)-6-chloro-3-oxo-N-{[6-(trifluoromethyl)pyridin-3-yl]methyl}isoindoline-1-carboxamide] has an IC50 of 1500 nM.
`CC(C)(C)NC(=O)C1c2ccccc2C(=O)N1Cc1ccccc1C(F)(F)F` (centres unmarked) [N-(tert-butyl)-3-oxo-2-[2-(trifluoromethyl)benzyl]isoindoline-1-carboxamide] showed an IC50 of 1900 nM.
For `CC(C)(C)NC(=O)C1c2ccccc2C(=O)N1Cc1ccccc1-c1ccc(F)c(F)c1` (single isomer, unassigned) [(1S or 1R)-N-(tert-butyl)-2-[(3′,4′-difluorobiphenyl-2-yl)methyl]-3-oxoisoindoline-1-carboxamide], the IC50 was 5500 nM.
With `Cn1nc(CN2C(=O)c3ccccc3C2C(=O)NC(C)(C)C)cc1-c1ccccc1` (centres unmarked) [N-(tert-butyl)-2-[(1-methyl-5-phenyl-1H-pyrazol-3-yl)methyl]-3-oxoisoindoline-1-carboxamide] the IC50 was 2500 nM.
In the case of `O=C(NCc1ccc(C(F)(F)F)nc1)C1c2ccccc2C(=O)N1Cc1ccccc1-c1ccccc1` (centres unmarked) [2-(biphenyl-2-ylmethyl)-3-oxo-N-{[6-(trifluoromethyl)pyridin-3-yl]methyl}isoindoline-1-carboxamide], the IC50 is reported as 940 nM.
Work on `CC(C)(C)CCN1C(=O)c2ccccc2C1C(=O)NCc1cccc(OC(F)F)c1` (centres unmarked) [N-[3-(difluoromethoxy)benzyl]-2-(3,3-dimethylbutyl)-3-oxoisoindoline-1-carboxamide] yielded an IC50 of 1800 nM.
`CCCCNC(=O)C1c2ccccc2C(=O)N1CC(C)(C)c1ccc(Cl)cc1` (centres unmarked) [N-butyl-2-[2-(4-chlorophenyl)-2-methyl-propyl]-3-oxo-1H-isoindole-1-carboxamide] showed an IC50 of 530 nM.

— patent US20080015237A1 (ASTRAZENECA AB, priority 2006, published 2008)
